These results are taken from patent US9187472B2 (AbbVie Inc., priority 2012, dated 2015).

Structures are written as SMILES.

The target in one assay is NAMPT (Homo sapiens, UniProt P43490). Nature of the assay: TR-FRET Binding Assay of NAMPT with PRPP. Particulars: with 200 μM PRPP and 2.5 mM ATP; 2 nM NAMPT, 2 nM probe, 16 hours equilibration. An outline of the steps:
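Human NAMPT (2 nM) with 2 nM probe and 1 nM Tb-anti-His antibody, plus 200 μM PRPP and 2.5 mM ATP, 2% DMSO. TR-FRET read after 16 h equilibration, permitting possible enzymatic modification of test compounds; data processing as for the substrate-free format.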
(Time-resolved FRET reads energy transfer from a long-lived donor to a nearby acceptor.)

In assay [1] the target is NAMPT (human, recombinant, C-terminally His-tagged) (Homo sapiens, UniProt P43490). Description: Time-Resolved Fluorescence Resonance Energy Transfer (TR-FRET) Binding Assay of NAMPT. To be noted: without substrates; 6.8 nM NAMPT, 200 nM probe, 3 hours equilibration. An outline of the steps: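 A TR-FRET probe-displacement assay used 6.8 nM His-tagged recombinant human NAMPT, 200 nM Oregon Green 488-labelled nicotinamide-competitive probe and 1 nM Tb-anti-His antibody. Buffer was HEPES pH 7.5 with NaCl, MgCl2, DTT and glycerol, plus 2% DMSO, equilibrated 3 h at room temperature. Em520/Em495 ratios, normalized to controls, gave IC50 by four-parameter logistic fit.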
Chain of NAMPT (human, recombinant, C-terminally His-tagged) (P43490 whole entry): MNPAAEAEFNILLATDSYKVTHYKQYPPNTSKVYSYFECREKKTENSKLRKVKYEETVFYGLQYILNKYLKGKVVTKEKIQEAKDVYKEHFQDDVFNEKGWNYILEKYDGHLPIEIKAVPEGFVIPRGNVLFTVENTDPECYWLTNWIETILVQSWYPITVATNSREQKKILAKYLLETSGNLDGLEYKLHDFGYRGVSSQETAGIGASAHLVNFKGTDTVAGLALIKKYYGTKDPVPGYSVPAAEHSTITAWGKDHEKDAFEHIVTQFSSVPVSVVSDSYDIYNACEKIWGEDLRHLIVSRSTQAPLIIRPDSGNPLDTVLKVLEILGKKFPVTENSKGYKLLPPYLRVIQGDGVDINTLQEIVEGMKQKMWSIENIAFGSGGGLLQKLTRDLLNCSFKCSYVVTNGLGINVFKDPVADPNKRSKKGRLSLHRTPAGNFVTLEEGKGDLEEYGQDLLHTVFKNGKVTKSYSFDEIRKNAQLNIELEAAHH

The subject of another assay is PC3 cells. Nature of the assay: NAMPT Cell Proliferation Assay. It counts as cell-based. To be noted: Homo sapiens, PC-3, 120 h, 5 days incubation, cell viability by Cell Titer Glo. The gist of the method: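 Following overnight attachment in RPMI with 10% heat-inactivated FBS, PC3 cells at 500 per well receive compounds spanning 10 μM down to 1×10^−5 μM. Growth is assessed by luminescent viability read after 5 days.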

Chain of NAMPT (P43490 whole entry): as above

The IC50 is the midpoint of a concentration-inhibition curve. With `CC(C)(O)CNC(=O)c1ccc(NC(=O)Nc2ccc3nccn3c2)cc1` [Example 13, N-(2-hydroxy-2-methylpropyl)-4-[(imidazo[1,2-a]pyridin-6-ylcarbamoyl)amino]benzamide], the IC50 at NAMPT came to 0.663 nM; in assay [1], 653 nM; with PC3 cells, 1170 nM.
In the same order, the values of `CC1(C(=O)N2CCC(c3ccc(C(=O)NCc4ccn5ccnc5c4)s3)C2)COC1` (stereo not drawn) [Example 767, N-(imidazo[1,2-a]pyridin-7-ylmethyl)-5-{1-[(3-methyloxetan-3-yl)carbonyl]pyrrolidin-3-yl}thiophene-2-carboxamide] are 0.64 nM, 265 nM and 67.2 nM.
On to `O=C(NCc1ccn2ccnc2c1)c1ccc(C2CCN(C(=O)c3cccc(C(F)(F)F)c3)C2)cc1` (stereo not drawn) [Example 620, N-(imidazo[1,2-a]pyridin-7-ylmethyl)-4-{1-[3-(trifluoromethyl)benzoyl]pyrrolidin-3-yl}benzamide], for which the IC50 on NAMPT came to 1 nM; in assay [1], 710 nM; with PC3 cells, 131 nM.
On the same counts, the results for `O=C(NCc1ccn2ccnc2c1)Nc1ccc(C2CCN(C(=O)C3CCS(=O)(=O)CC3)CC2)cc1` [Example 243, 1-(4-{1-[(1,1-dioxidotetrahydro-2H-thiopyran-4-yl)carbonyl]piperidin-4-yl}phenyl)-3-(imidazo[1,2-a]pyridin-7-ylmethyl)urea] are 0.169 nM, 169 nM and 28 nM.
`CC(C)C(=O)N1CCC(c2ncc(C(=O)NCc3ccn4ccnc4c3)s2)C1` (stereo not drawn) [Example 805, N-(imidazo[1,2-a]pyridin-7-ylmethyl)-2-[1-(2-methylpropanoyl)pyrrolidin-3-yl]-1,3-thiazole-5-carboxamide]: the IC50 at NAMPT is 1.12 nM; in assay [1], 3920 nM; in the assay with PC3 cells it was 7820 nM.
On the same counts, the results for `O=C(NCc1ccn2ccnc2c1)c1ccc(C2CCN(C(=O)C3CCOC3)CC2)s1` (stereo not drawn) [Example 261, N-(imidazo[1,2-a]pyridin-7-ylmethyl)-5-[1-(tetrahydrofuran-3-ylcarbonyl)piperidin-4-yl]thiophene-2-carboxamide] are 0.231 nM, 62.7 nM and 5.1 nM.
In the same order, the values of `O=C(NCc1ccn2ccnc2c1)c1ccc(C2CCN(C(=O)c3cc(F)cc(F)c3)CC2)cc1` [Example 530, 4-[1-(3,5-difluorobenzoyl)piperidin-4-yl]-N-(imidazo[1,2-a]pyridin-7-ylmethyl)benzamide] are 0.791 nM, 378 nM and 82.1 nM.
On the same counts, the results for `Cn1ccc(C(=O)N2CCC(c3ccc(C(=O)NCc4ccn5ccnc5c4)cc3)C2)n1` (stereo not drawn) [Example 593, N-(imidazo[1,2-a]pyridin-7-ylmethyl)-4-{1-[(1-methyl-1H-pyrazol-3-yl)carbonyl]pyrrolidin-3-yl}benzamide] are 0.544 nM, 767 nM and 677 nM.
Turning to `CC1(C(=O)N2CCC(c3ccc(C(=O)NCc4ccn5ccnc5c4)cc3)C2)CCCCC1` (stereo not drawn) [Example 614, N-(imidazo[1,2-a]pyridin-7-ylmethyl)-4-{1-[(1-methylcyclohexyl)carbonyl]pyrrolidin-3-yl}benzamide], the IC50 on NAMPT came to 0.67 nM; in assay [1] it was 216 nM; with PC3 cells, 5.72 nM.
In the same order, the values of `O=C(NCc1ccn2ccnc2c1)c1ccc(-c2cnn(CCN3CCOCC3)c2)s1` [Example 294, N-(imidazo[1,2-a]pyridin-7-ylmethyl)-5-{1-[2-(morpholin-4-yl)ethyl]-1H-pyrazol-4-yl}thiophene-2-carboxamide] are 0.169 nM, 44.7 nM and 1.88 nM.
On the same counts, the results for `CCCC(=O)N1CCC(c2ccc(C(=O)NCc3ccn4ccnc4c3)s2)C1` (stereo not drawn) [Example 782, 5-(1-butanoylpyrrolidin-3-yl)-N-(imidazo[1,2-a]pyridin-7-ylmethyl)thiophene-2-carboxamide] are 0.466 nM, 134 nM and 24.7 nM.
